In patent US9701664B2, “Fused 1,4-dihydrodioxin derivatives as inhibitors of heat shock transcription factor 1” (Cancer Research Technology Limited, priority 2013, dated 2017):
Where a name gives a salt, the structure may show the parent alone. Read-outs that look alike come from different tables or passages of the source.

Experiments:
HSP72 in U2OS cells = assay: Cell-based ELISA (Cellisa) assay, U2OS cells: inhibition of 17-AAG-induced HSP72; details: U2OS cells (Examples 1-168)
U2OS cells = assay: Titre Blue cell viability assay, U2OS cells; assay type: cell-based

Molecule	IC50 (HSP72 in U2OS cells; Homo sapiens) [µM]	IC50 (U2OS cells; Homo sapiens, U2OS) [µM]	IC50 (HSP72 in U2OS cells) [µM]	IC50 (U2OS cells) [µM]
Cc1ccc2cc(C(=O)Nc3cc(NC(=O)c4cnc5c(c4)OCCO5)ccc3C)ccc2n1 [Example 135, N-(4-methyl-3-(2-methylquinoline-6-carboxamido)phenyl)-2,3-dihydro-[1,4]dioxino[2,3-b]pyridine-7-carboxamide]	0.027	0.029		
Cc1ccc(NC(=O)c2ccc3c(c2)OCCO3)cc1NC(=O)c1ccc2nc(OCCN3CCC(F)(F)CC3)ccc2c1 [Example 72, 2-(2-(4,4-difluoropiperidin-1-yl)ethoxy)-N-(5-(2,3-dihydrobenzo[b][1,4]dioxine-6-carboxamido)-2-methylphenyl)quinoline-6-carboxamide]	0.105	0.06		
Cc1ccc(NC(=O)c2ccc3c(c2)OCCO3)cc1NC(=O)c1ccc2nc(OCCCN3CCCC3)ccc2c1 [Example 56, N-(5-(2,3-dihydrobenzo[b][1,4]dioxine-6-carboxamido)-2-methylphenyl)-2-(3-(pyrrolidin-1-yl)propoxy)quinoline-6-carboxamide]	0.013	0.003		
Cc1ccc(NC(=O)c2ccc3c(c2)OCCO3)cc1NC(=O)c1ccc2nc(CN3CCCC3)ccc2c1 [Example 67, N-(5-(2,3-dihydrobenzo[b][1,4]dioxine-6-carboxamido)-2-methylphenyl)-2-(pyrrolidin-1-ylmethyl)quinoline-6-carboxamide formate]	0.035	0.033		
Cc1ccc2cc(C(=O)Nc3cc(NC(=O)c4ccc5c(c4)OCCO5)ccc3CO)ccc2n1 [Example 167, N-(5-(2,3-dihydrobenzo[b][1,4]dioxine-6-carboxamido)-2-(hydroxymethyl)phenyl)-2-methylquinoline-6-carboxamide]	0.176	0.086		
COCc1ccc2cc(C(=O)Nc3cc(NC(=O)c4ccc5c(c4)OCCO5)ccc3C)ccc2n1 [Example 137, N-(5-(2,3-dihydrobenzo[b][1,4]dioxine-6-carboxamido)-2-methylphenyl)-2-(methoxymethyl)quinoline-6-carboxamide]	0.015	0.026		
Cc1ccc(NC(=O)c2ccc3c(c2)OCCO3)cc1NC(=O)c1ccc2nc(OCCCN3CCOCC3)ccc2c1 [Example 55, N-(5-(2,3-dihydrobenzo[b][1,4]dioxine-6-carboxamido)-2-methylphenyl)-2-(3-morpholinopropoxy)quinoline-6-carboxamide]	0.013	0.02		
Cc1ccc(NC(=O)c2ccc3c(c2)OCCO3)cc1NC(=O)c1ccc2nc(CN(C)C)ccc2c1 [Example 71, N-(5-(2,3-dihydrobenzo[b][1,4]dioxine-6-carboxamido)-2-methylphenyl)-2-((dimethylamino)methyl)quinoline-6-carboxamide]	0.082	0.118		
COc1cc(C(=O)Nc2cc(NC(=O)c3ccc4c(c3)OCCO4)ccc2C)cc2sc(N)nc12 [Example 95, 2-amino-N-(5-(2,3-dihydrobenzo[b][1,4]dioxine-6-carboxamido)-2-methylphenyl)-4-methoxybenzo[d]thiazole-6-carboxamide]	0.089	0.156		
C=CCc1cccc2ncc(C(=O)Nc3cc(NC(=O)c4ccc5c(c4)OCCO5)ccc3C)cc12 [Example 161, 5-allyl-N-(5-(2,3-dihydrobenzo[b][1,4]dioxine-6-carboxamido)-2-methylphenyl)quinoline-3-carboxamide]	0.911	0.557		
Cc1ccc(NC(=O)c2ccc3c(c2)OCCO3)cc1NC(=O)c1cnc2cccc(CCN3CCCC3)c2c1 [Example 158, N-(5-(2,3-dihydrobenzo[b][1,4]dioxine-6-carboxamido)-2-methylphenyl)-5-(2-(pyrrolidin-1-yl)ethyl)quinoline-3-carboxamide]	0.239	0.202		
Cc1ccc(NC(=O)c2ccc3c(c2)OCCO3)cc1NC(=O)c1ccc2sccc2c1 [Example 18, N-(3-(benzo[b]thiophene-5-carboxamido)-4-methylphenyl)-2,3-dihydrobenzo[b][1,4]dioxine-6-carboxamide]	0.062	0.034		
Cc1ccc(NC(=O)c2ccc3c(c2)OCCO3)cc1NC(=O)c1ccc2nc(COCCN3CCCC3)ccc2c1 [Example 147, N-(5-(2,3-dihydrobenzo[b][1,4]dioxine-6-carboxamido)-2-methylphenyl)-2-((2-(pyrrolidin-1-yl)ethoxy)methyl)quinoline-6-carboxamide]	0.083	0.054		
N#Cc1ccc(NC(=O)c2ccc3c(c2)OCCO3)cc1NC(=O)c1ccc2ncccc2c1 [Example 140, N-(2-cyano-5-(2,3-dihydrobenzo[b][1,4]dioxine-6-carboxamido)phenyl)quinoline-6-carboxamide]	0.031	0.034		
2-(2-aminoethoxy)-N-(5-(2,3-dihydrobenzo[b][1,4]dioxine-6-carboxamido)-2-methyl)phenyl)quinoline-6-carboxamide [Example 89]			0.013	0.015
Cc1ccc(NC(=O)c2ccc3c(c2)OCCO3)cc1NC(=O)c1ccc2nc(OCC(C)N3CCCC3)ccc2c1 (centres unmarked) [Example 68, N-(5-(2,3-dihydrobenzo[b][1,4]dioxine-6-carboxamido)-2-methylphenyl)-2-(2-(pyrrolidin-1-yl)propoxy)quinoline-6-carboxamide]	0.041	0.012		
COc1ccc2cc(C(=O)Nc3cc(NC(=O)c4ccc5c(c4)OCCO5)ccc3C)ccc2n1 [Example 29, N-(5-(2,3-dihydrobenzo[b][1,4]dioxine-6-carboxamido)-2-methylphenyl)-2-methoxyquinoline-6-carboxamide]	0.499	0.626		
Cc1ccc(NC(=O)c2ccc3c(c2)OCCO3)cc1NC(=O)c1cnc2ccccc2c1 [Example 47, N-(5-(2,3-dihydrobenzo[b][1,4]dioxine-6-carboxamido)-2-methylphenyl)quinoline-3-carboxamide]	0.004	0.012		
Cc1ccc(NC(=O)c2ccc3c(c2)OCCO3)cc1NC(=O)c1ccc2c(c1)CCC(CN(C)C)N2 (centres unmarked) [Example 87, N-(5-(2,3-dihydrobenzo[b][1,4]dioxine-6-carboxamido)-2-methylphenyl)-2-((dimethylamino)methyl)-1,2,3,4-tetrahydroquinoline-6-carboxamide]	0.608	0.26		
Cc1ccc(NC(=O)c2ccc3c(c2)OCCO3)cc1NC(=O)c1cnc2ncccc2c1 [Example 45, N-(5-(2,3-dihydrobenzo[b][1,4]dioxine-6-carboxamido)-2-methylphenyl)-1,8-naphthyridine-3-carboxamide]	0.036	0.085		
Cc1ccc(NC(=O)c2ccc3c(c2)OCCO3)cc1NC(=O)c1ccc2nc(OCCN3CCOCC3)ccc2c1 [Example 66, N-(5-(2,3-dihydrobenzo[b][1,4]dioxine-6-carboxamido)-2-methylphenyl)-2-(2-morpholinoethoxy)quinoline-6-carboxamide]	0.03	0.04		
Cc1ccc(NC(=O)c2ccc3c(c2)OCCO3)cc1NC(=O)c1ccc2c(c1)COC2=O [Example 8, N-(4-methyl-3-(1-oxo-1,3-dihydroisobenzofuran-5-carboxamido)phenyl)-2,3-dihydrobenzo[b][1,4]dioxine-6-carboxamide]	0.205	0.108		
